The text below walks through data of patent publication US5786145A, “Oligonucleotide competitors for binding of HIV RRE to REV protein and assays for screening inhibitors of this binding” (Medical Research Council, priority 1995, dated 1998).

“Also recorded” adds a separate entry of the source.

B1: 1-96: RRE fragment 1-96 T7 transcript (nucleic acid)
chain: GGGAGACCGGAAUUCCCUUGGGUUCUUGGGAGCAGCAGGAAGCACUAUGGGCGCAGUGUCAUUGACGCUGACGGUACAGGCCAGACAAUUAUUGUCUGGUAUAGUGCAACA
modifications: unmodified RNA
notes: RRE fragment 1-96 T7 transcript
B2: 26-72: RRE fragment 26-72 T7 transcript (nucleic acid)
chain: GGGAGACCGGAAUUCAGCACUAGGGCGCAGUGUCAUUGACGCUGAGGGUACAGGCCAGACAAUUAUA
modifications: unmodified RNA
notes: RRE fragment 26-72 T7 transcript
B3: 26-92: RRE fragment 26-92 T7 transcript (nucleic acid)
chain: GGGAGACCGGAAUUCAGCACUAUGGGCGCAGUGUCAUUGACGCUGACGGUACAGGCCAGACAAUUAUUGUCUGGUAUAGUGCA
modifications: unmodified RNA
notes: RRE fragment 26-92 T7 transcript
B4: R49 (ssRNA)
RNA: GGGAGACCGGAAUUCUGGGCGCAGUGUCAUUGACGCUGCGUACAGAAUUCCGGCA
modifications: [none]
B5: R45 (ssRNA)
RNA: GGGAGACCGGAAUUCUGGGCGCAGUGUCAUUGACGCUGCGGACAGAAUUCCGGCA
modifications: [none]
B6: R46 (ssRNA)
RNA: GGGAGACCGGAAUUCUGGGCGCAGUGUCAUUGACGCUGCGGUCAGAAUUCCGGCA
modifications: [none]
B7: R58 (ssRNA)
RNA: GGGAGACCGGAAUUCUGGGCGCAGUGUCAUUGACGCUGCGAUACAGAAUUCCGGCA
modifications: [none]
B8: R56 (ssRNA)
RNA: GGGAGACCGGAAUUCUGGGUGCAGUGUCAUUGACGCUGCAGUACAGAAUUCCGGCA
modifications: [none]
B9: R53 (ssRNA)
RNA: GGGAGACCGGAAUUCUGGGCGCAGUGUCAUUGACGCUGCGGUGCAGAAUUCCGGCA
modifications: [none]
B10: R41 (ssRNA)
RNA: GGGAGACCGGAAUUCUGGGGGCAGUGUCAUUGACGCUGCCGUACAGAAUUCCGGCA
modifications: [none]
B11: R47 (ssRNA)
RNA: GGGAGACCGGAAUUCUGAGCGCAGUGUCAUUGACGCUGCGGUACAGAAUUCCGGCA
modifications: [none]
B12: R40 (ssRNA)
RNA: GGGAGACCGGAAUUCUCGGCGCAGUGUCAUUGACGCUGCGGUAGAGAAUUCCGGCA
modifications: [none]
B13: R36 (dG59-A61) (ssRNA)
RNA: GGGAGACCGGAAUUCUGGGCGCAGUGUCAUUGACGCUGCGCAGAAUUCCGGCA
B14: R37 (ssRNA)
RNA: GGGAGACCGGAAUUCUAAACGCAGUGUCAUUGACGCUGCGGUAUAGAAUUCCGGCA

HIV-1 Rev, sequence (P04618 whole entry, one chain of several): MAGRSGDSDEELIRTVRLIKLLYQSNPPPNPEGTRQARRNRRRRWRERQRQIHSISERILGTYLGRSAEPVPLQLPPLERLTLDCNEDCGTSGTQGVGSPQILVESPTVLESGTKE

In the first series the test system is rev protein. The series can be described thus: Saturation filter binding of rev to labelled RNA transcripts. The note with it: Table I; 10 nM rev, 50 mM KCl. On the set-up: species or system HIV-1. As for the experimental part:
Rev protein was expressed and purified as described (33) or further purified by chromatography on Heparin-Sepharose. Rev was applied to Heparin columns in a buffer containing 200 mM NaCl/50mM Tris-HCl pH8.0/1 mM DTT/0.1 mM EDTA 0.1% Triton X-100 and eluted in buffer containing 2M NaCl. After gel filtration on Superose 6 (prep grade) columns equilibrated with 200 mM NaCl/50 mM Tris-HCl pH8.0/1 mM DTT/0.1 mM EDTA, the rev protein appeared homogeneous on SDS-polyacrylamide gels and free of RNA contaminants. Rev concentrations were determined by amino acid analysis of the purified protein.
DNA inserts containing RRE-related sequences were cloned between the EcoRI (5') and HindIII (3') sites of pGEM 1, either by cloning PCR products or by cloning annealed pairs of synthetic oligonucleotides. RNA transcripts for binding experiments were prepared by transcription of HindIII cut plasmids using T7 RNA polymerase and purified by gel electrophoresis. These transcripts carry a 5' extension of 15 nucleotides contributed by the vector and an extra A residue at the 3' end from the HindIII site, as described above.
For filter binding assays, each reaction mixture contained 20 pg of uniformly labelled RNA probe (approximately 500 cpm/pg RNA), […] sonicated salmon sperm DNA, […] yeast tRNA, 40 units RNasin (Promega) in […] TK buffer (43 mM Tris-HCl pH8.0, 50 mM KCl). Incubation was at 4° C. for 15 minutes in the presence of 0 to 10 nM purified rev protein. To measure binding, each reaction mixture was applied under gentle vacuum to a 0.45 um Millipore filter which had been pre-wetted with TK buffer. The filters were washed with […] TK buffer, dried, and radioactivity counted by liquid scintillation.
Filter binding assays contained 20 pg uniformly labelled RNA probe (500 dpm per pg RNA), 1 μg salmon sperm DNA, 0.45 μg yeast tRNA and 40 units RNasin (Promega) in 500 μl buffer containing 43 mM Tris-HCl pH 8.0, 50 mM KCl. Mutations in the purine-rich "bubble" sequence (numbered as shown in FIG. 2) were introduced into the R33 stem-loop structure (FIG. 3d) by site-directed mutagenesis.
For “R36 (GGGAGACCGGAAUUCUGGGCGCAGUGUCAUUGACGCUGCGCAGAAUUCCGGCA; chemistry not given here)”, the “% RNA bound (10 nM rev)” value amounted to 4%.

Take “R37 (GGGAGACCGGAAUUCUAAACGCAGUGUCAUUGACGCUGCGGUAUAGAAUUCCGGCA; chemistry not given here)”: the “% RNA bound (10 nM rev)” value is reported as 5%.

Staying with this series, now noted: saturation filter binding of T7 transcripts; read-out: Kd for rev binding.
Broadly, the Kd is the free concentration of one partner at which half of the binding sites on the other are occupied at equilibrium, for simple one-to-one binding. “R19: transcript containing RRE sequences 33 to 66 (GGGAGACCGGAAUUCUGGGCGCAGUGUCAUUGACGCUGACGGUACAGGCA; unmodified RNA)”: the Kd was in the range of 1 to 3 nM.

Regarding “R22: residue A56 is deleted from R20 (GGGAGACCGGAAUUCUGGGCGCAGUGUCAUUGACGCUGCGGUACAGGCA; chemistry not given here)”, the Kd lay within 1 to 3 nM.

Take “R38: stem-loop structure C39 to A56 replaced by the stable loop sequence CUUCGG (GGGAGACCGGAAUUCUGGGCGCUUCGGCGGUACAGA; chemistry not given here)”: the Kd lay in the range of 1 to 3 nM.

Still in this series, the particulars now being: saturation filter binding, 0 to 10 nM rev.
For the molecule “R29: residues altered in the apex of the loop to give the anti-sense sequence (GGGAGACCGGAAUUCUGGGCGCAGUGUCAAUGACGCUGACGGUACAGGCA; chemistry not given here)”, the “rev binding, result in words” value is “normal rev binding activity”.

Take “R30: base pairing in the upper stem structure altered to give the anti-sense sequence (GGGAGACCGGAAUUCUGGGCGCAGCGUCAUUGACACUGCGGUACAGGCA; chemistry not given here)”: the “rev binding, result in words” value is listed as “normal rev binding activity”.

As for “R36 (GGGAGACCGGAAUUCUGGGCGCAGUGUCAUUGACGCUGCGCAGAAUUCCGGCA; chemistry not given here)”, the “rev binding, result in words” value was “loss of rev binding”.

Regarding “R37 (GGGAGACCGGAAUUCUAAACGCAGUGUCAUUGACGCUGCGGUAUAGAAUUCCGGCA; chemistry not given here)”, the “rev binding, result in words” value is reported as “abolished specific rev binding”.

With B1, the “rev binding, result in words” value is given as “same affinity as the full-length RRE sequence”.

On to B2, for which the “rev binding, result in words” value is recorded as “does not bind rev”.

Consider B3, for which the “rev binding, result in words” value is reported as “same affinity as the full-length RRE sequence; also recorded: Identical binding behaviour”.

Another series addresses HIV-1 Rev (Human immunodeficiency virus 1, UniProt P04618 P04618:1-116). The series can be described thus: filter; non-specific binding only. The settings on record: tags: none stated; heparin-Sepharose and Superose 6 purified; chain copies: oligomer (tetramer likely; about 4 per RBC6, 6-8 per full-length RRE at 50 mM KCl) stated; label: 32P uniform.
In the case of B4, the binding signal was 2 % RNA bound at 10 nM rev.

Take B5: the binding signal turned out to be 6 % RNA bound at 10 nM rev.

Take B6: the binding signal turned out to be 1 % RNA bound at 10 nM rev.

Molecule B7 came in with a binding signal of 6 % RNA bound at 10 nM rev.

B8 returned a binding signal of 6 % RNA bound at 10 nM rev.

Regarding B9, the binding signal came to 5 % RNA bound at 10 nM rev.

The molecule B10 had a binding signal of 2 % RNA bound at 10 nM rev.

In turn, B11 displayed a binding signal of 6 % RNA bound at 10 nM rev.

As to B12, the binding signal worked out at 3 % RNA bound at 10 nM rev.

The same series, now with this note: tags: none stated; heparin-Sepharose and Superose 6 purified; chain copies: oligomer (tetramer likely; about 4 per RBC6, 6-8 per full-length RRE at 50 mM KCl) stated; label: 32P uniform; stem-loop with G,G bulge.
B13: the binding signal came to 4 % RNA bound at 10 nM rev.

The series is the same for the next values; noted with them: tags: none stated; heparin-Sepharose and Superose 6 purified; chain copies: oligomer (tetramer likely; about 4 per RBC6, 6-8 per full-length RRE at 50 mM KCl) stated; label: 32P uniform; stem-loop with altered bubble.
As to B14, the binding signal was determined as 5 % RNA bound at 10 nM rev.

For a further series, the system named is rev protein. Nature of the series: Competition filter binding against 32P-labelled R7 (FIGS. 13, 17). Set-up: species or system HIV-1. The settings on record: 1.5 nM labelled R7, 24 nM rev, 0-60 nM competitor. As to the method:
In these experiments, uniformly ^32 P-labelled R7 (1.5 nM) was competed against 0-60 nM unlabelled competitor RNA in the presence of 24 nM rev protein.
The mixtures for competition binding (0.5 ml) included 1.5 nM ^32 P-labelled R7 (ca. 20,000 cpm), 24 nM rev protein, 1.5 ug/ml calf thymus DNA, 0.67 ug/ml yeast rRNA, varying concentrations (0-60 nM) of unlabelled competitor RNA and 80 units/ml RNasin in TK buffer (50 mM Tris-HCl (pH7.9) and 20 mM KCl). Binding was allowed to take place for more than 15 min on ice, and each mixture was passed through a Millipore GS filter (a 2.5 cm disk with a pore size of 0.22 um) prewashed twice with 0.6 ml of ice-cold TK buffer. The filter was washed with 0.6 ml of cold TK buffer and dried. The radioactivity retained on the filter was counted by liquid scintillation, and the results were plotted on a graph (FIG. 13).
Take “RBC2-6X: only two oligonucleotides annealed, containing all sequences from the bubble region (chain 1 GCACUAUGGGCGCAGC; chain 2 GCUGCGGUACAGGCCAGA; chemistry not given here)”: the “competition for rev binding against labelled R7, result in words” value (shortened to “competition for rev binding”) is recorded as “not sufficiently stable to form an effective rev binding site”.

In the case of “RBC4: chemically synthesized RNA duplex, purine-rich bubble with 4 base pairs in the stem on each side (chain 1 UGUGGGCGCA; chain 2 UGCGGUACAC; RNA, backbone not given here)”, the “competition for rev binding” value is reported as “no competitive binding abilities”.

“RBC5: chemically synthesized RNA duplex, purine-rich bubble with 5 base pairs on each side (chain 1 GUGUGGGCGCAG; chain 2 CUGCGGUACACA; RNA, backbone not given here)”: the “competition for rev binding” value is listed as “less”.

Turning to “TWJ-C: three annealed synthetic oligoribonucleotides forming bubble stabilized by three-way junction; U85 replaced by C (chain 1 GCACUAUGGGCGCAGC; chain 2 GCUGCGGUACAGGCCAGA; chain 3 UCUGGCAUAGUGC; RNA, backbone not given here)”, the “competition for rev binding” value is listed as “compete for rev binding with the same affinity”.

With “TWJ-U: three annealed synthetic oligoribonucleotides forming three-way junction; authentic HIV-1ARV2 sequence with G:U base pair (chain 1 GCACUAUGGGCGCAGC; chain 2 GCUGCGGUACAGGCCAGA; chain 3 UCUGGUAUAGUGC; RNA, backbone not given here)”, the “competition for rev binding” value is reported as “compete for rev binding with the same affinity”.

Staying with this series, now noted: 1.5 nM labelled R7, 24 nM rev, 0-60 nM competitor; listed as RBC2,6X.
“RBC2-6X: only two oligonucleotides annealed, containing all sequences from the bubble region (chain 1 GCACUAUGGGCGCAGC; chain 2 GCUGCGGUACAGGCCAGA; chemistry not given here)”: the “competition for rev binding” value is “unable to compete effectively”.
